What follows are molecules tested against ROCK2 (Homo sapiens (Human), UniProt O75116) (assay: Rho Kinase Inhibition Assay (IMAP fluorescence polarization)). Conditions: isolated enzyme, 10 μM ATP, 60 minutes at room temperature.
Chain of ROCK2 (O75116 11-552): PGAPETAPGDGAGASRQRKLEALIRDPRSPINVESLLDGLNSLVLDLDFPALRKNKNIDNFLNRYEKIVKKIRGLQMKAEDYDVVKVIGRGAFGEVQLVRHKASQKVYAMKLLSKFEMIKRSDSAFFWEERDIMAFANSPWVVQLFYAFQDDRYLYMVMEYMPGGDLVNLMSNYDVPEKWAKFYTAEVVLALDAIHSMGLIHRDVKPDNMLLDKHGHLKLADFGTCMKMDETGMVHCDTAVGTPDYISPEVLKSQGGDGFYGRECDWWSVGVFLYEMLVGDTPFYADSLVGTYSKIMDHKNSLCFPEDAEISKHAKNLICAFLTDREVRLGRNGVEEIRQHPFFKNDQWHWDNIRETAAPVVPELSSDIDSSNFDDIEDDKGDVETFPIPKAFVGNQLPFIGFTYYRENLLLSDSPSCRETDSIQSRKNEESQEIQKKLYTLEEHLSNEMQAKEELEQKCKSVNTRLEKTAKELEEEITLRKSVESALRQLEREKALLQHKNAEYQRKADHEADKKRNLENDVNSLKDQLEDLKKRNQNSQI
Type: biochemical
Protocol: Following the preincubation, 10 μM ATP was added to initiate the reaction. After 60 minutes at room temperature, Molecular Devices IMAP™ binding solution was added to bind phosphorylated substrate. After 30 minutes of incubation in the presence of the IMAP™ beads the fluorescence polarization was read and the ratio was reported as mP. IC50 results were calculated using the Prism software from Graphpad.
See Tian et al., Arch. Ophthalmol. […] Ophthalmol. Vis. […] Ophthalmol. […] Cytoskel. […] Ophthalmol. Vis. […] Ophthalmol. Vis.
In the case of CS(=O)(=O)c1ccc(CN2CCCC(Nc3ccc4[nH]ncc4c3)C2)cc1 (centres unmarked) [Compound 1.001, N-(1-(4-(methylsulfonyl)benzyl)piperidin-3-yl)-1H-indazol-5-amine], the IC50 is reported as 358 nM.
CC(C)c1ccc(CN2CCCC(Nc3ccc4[nH]ncc4c3)C2)cc1 (centres unmarked) [Compound 1.023, N-(1-(4-isopropylbenzyl)piperidin-3-yl)-1H-indazol-5-amine] gave an IC50 of 334 nM.
c1cc(C2CC2)ccc1CN1CCCC(Nc2ccc3[nH]ncc3c2)C1 (centres unmarked) [Compound 1.020, N-(1-(4-cyclopropylbenzyl)piperidin-3-yl)-1H-indazol-5-amine] showed an IC50 of 251 nM.
Brc1ccc(Br)c(CN2CCCC(Nc3ccc4[nH]ncc4c3)C2)c1 (centres unmarked) [Compound 1.071, N-(1-(2,5-dibromobenzyl)piperidin-3-yl)-1H-indazol-5-amine] gave an IC50 of 5590 nM.
Work on OCc1ccc(CN2CCCC(Nc3ccc4[nH]ncc4c3)C2)cc1 (centres unmarked) [Compound 1.025, (4-((3-(1H-indazol-5-ylamino)piperidin-1-yl)methyl)phenyl)methanol] yielded an IC50 of 588 nM.
Molecule FC(F)(F)c1cccc(CN2CCCC(Nc3ccc4[nH]ncc4c3)C2)c1 (centres unmarked) [Compound 1.063, N-(1-(3-(trifluoromethyl)benzyl)piperidin-3-yl)-1H-indazol-5-amine] has an IC50 of 223 nM.
Molecule CS(=O)(=O)Cc1ccc(CN2CCCC(Nc3ccc4[nH]ncc4c3)C2)cc1 (centres unmarked) [Compound 1.029, N-(1-(4-(methylsulfonylmethyl)benzyl)piperidin-3-yl)-1H-indazol-5-amine] has an IC50 of 11700 nM.
For CS(=O)(=O)c1cccc(CN2CCCC(Nc3ccc4[nH]ncc4c3)C2)c1 (centres unmarked) [Compound 1.048, N-(1-(3-(methylsulfonyl)benzyl)piperidin-3-yl)-1H-indazol-5-amine], the IC50 was 721 nM.
c1cc(N[C@@H]2CCN(Cc3ccc(C4CC4)cc3)C2)c2ccncc2c1 [Compound 2.022, (R)-N-(1-(4-cyclopropylbenzyl)pyrrolidin-3-yl)isoquinolin-5-amine] showed an IC50 of 311 nM.
Molecule NCCOc1cccc(CN2CCCC(Nc3ccc4[nH]ncc4c3)C2)c1 (centres unmarked) [Compound 1.085, N-(1-(3-(2-aminoethoxy)benzyl)piperidin-3-yl)-1H-indazol-5-amine] has an IC50 of 1680 nM.
OCCn1ccc2ccc(CN3CCCC(Nc4ccc5[nH]ncc5c4)C3)cc21 (centres unmarked) [Compound 1.101, 2-(6-((3-(1H-indazol-5-ylamino)piperidin-1-yl)methyl)-1H-indol-1-yl)ethanol] gave an IC50 of 68.5 nM.
CN(c1cccc(CN2CCCC(Nc3ccc4[nH]ncc4c3)C2)c1)S(C)(=O)=O (centres unmarked) [Compound 1.121, N-(3-((3-(1H-indazol-5-ylamino)piperidin-1-yl)methyl)phenyl)-N-methylmethanesulfonamide] showed an IC50 of 578 nM.
Work on CC(C)(C)OC(=O)NCc1cccc(CN2CCCC(Nc3ccc4[nH]ncc4c3)C2)c1 (centres unmarked) [Compound 1.057, tert-butyl 3-((3-(1H-indazol-5-ylamino)piperidin-1-yl)methyl)benzylcarbamate] yielded an IC50 of 194 nM.
Clc1ccc(CN2CCC(Nc3cccc4cnccc34)C2)cc1Cl (centres unmarked) [Compound 2.016, N-(1-(3,4-dichlorobenzyl)pyrrolidin-3-yl)isoquinolin-5-amine] showed an IC50 of 716 nM.
Work on O=C(O)COc1cccc(CN2CC[C@@H](Nc3cccc4cnccc34)C2)c1 [Compound 2.044, (R)-2-(3-((3-(isoquinolin-5-ylamino)pyrrolidin-1-yl)methyl)phenoxy)acetic acid] yielded an IC50 of 433 nM.
For CC(C)Cc1ccc(CN2CCCC(Nc3ccc4[nH]ncc4c3)C2)cc1 (centres unmarked) [Compound 1.013, N-(1-(4-isobutylbenzyl)piperidin-3-yl)-1H-indazol-5-amine], the IC50 was 3660 nM.
For Clc1ccc(CN2CC[C@H](Nc3cccc4cnccc34)C2)cc1 [Compound 2.030, (S)-N-(1-(4-chlorobenzyl)pyrrolidin-3-yl)isoquinolin-5-amine], the IC50 was 2460 nM.
With c1cc(NC2CCCN(Cc3ccc(SC4CC4)cc3)C2)c2ccncc2c1 (centres unmarked) [Compound 2.012, N-(1-(4-(cyclopropylthio)benzyl)piperidin-3-yl)isoquinolin-5-amine] the IC50 was 14900 nM.
Brc1cccc(CN2CCCC(Nc3ccc4[nH]ncc4c3)C2)c1 (centres unmarked) [Compound 1.045, N-(1-(3-bromobenzyl)piperidin-3-yl)-1H-indazol-5-amine] showed an IC50 of 586 nM.
In the case of CS(=O)(=O)Nc1cccc(CN2CCCC(Nc3ccc4[nH]ncc4c3)C2)c1 (centres unmarked) [Compound 1.051, N-(3-((3-(1H-indazol-5-ylamino)piperidin-1-yl)methyl)phenyl)methanesulfonamide], the IC50 is reported as 62.6 nM.
With CSc1ccc(CN2CC[C@H](Nc3cccc4cnccc34)C2)cc1 [Compound 2.029, (S)-N-(1-(4-(methylthio)benzyl)pyrrolidin-3-yl)isoquinolin-5-amine] the IC50 was 3140 nM.
For CC(=O)Nc1ccc(CN2CCCC(Nc3ccc4[nH]ncc4c3)C2)cc1 (centres unmarked) [Compound 1.003, N-(4-((3-(1H-indazol-5-ylamino)piperidin-1-yl)methyl)phenyl)acetamide], the IC50 was 6190 nM.
Work on OC[C@@H](O)COc1cccc(CN2CCC[C@@H](Nc3ccc4[nH]ncc4c3)C2)c1 [Compound 1.115, (R)-3-(3-(((R)-3-(1H-indazol-5-ylamino)piperidin-1-yl)methyl)phenoxy)propane-1,2-diol] yielded an IC50 of 555 nM.
For FC(F)(F)Oc1ccc(CN2CCCC(Nc3ccc4[nH]ncc4c3)C2)cc1 (centres unmarked) [Compound 1.022, N-(1-(4-(trifluoromethoxy)benzyl)piperidin-3-yl)-1H-indazol-5-amine], the IC50 was 1610 nM.
Work on NC(=O)COc1cccc(CN2CCCC(Nc3ccc4[nH]ncc4c3)C2)c1 (centres unmarked) [Compound 1.098, 2-(3-((3-(1H-indazol-5-ylamino)piperidin-1-yl)methyl)phenoxy)acetamide] yielded an IC50 of 250 nM.
Molecule CS(=O)(=O)Nc1cccc(CN2CCC[C@H](Nc3ccc4[nH]ncc4c3)C2)c1 [Compound 1.091, (S)-N-(3-((3-(1H-indazol-5-ylamino)piperidin-1-yl)methyl)phenyl)methanesulfonamide] has an IC50 of 49.4 nM.
For Fc1ccc(CN2CCC[C@H](Nc3ccc4[nH]ncc4c3)C2)cc1F [Compound 1.072, (S)-N-(1-(3,4-difluorobenzyl)piperidin-3-yl)-1H-indazol-5-amine], the IC50 was 58.5 nM.
Fc1ccc(CN2CCC[C@@H](Nc3ccc4[nH]ncc4c3)C2)cc1F [Compound 1.073, (R)-N-(1-(3,4-difluorobenzyl)piperidin-3-yl)-1H-indazol-5-amine] was tested, and the IC50 was 111 nM.
In the case of CCS(=O)(=O)Nc1cccc(CN2CCC[C@@H](Nc3ccc4[nH]ncc4c3)C2)c1 [Compound 1.123, (R)-N-(3-((3-(1H-indazol-5-ylamino)piperidin-1-yl)methyl)phenyl)ethanesulfonamide], the IC50 is reported as 135 nM.
For CC(=O)c1ccc(CN2CCCC(Nc3ccc4[nH]ncc4c3)C2)cc1 (centres unmarked) [Compound 1.036, 1-(4-((3-(1H-indazol-5-ylamino)piperidin-1-yl)methyl)phenyl)ethanone], the IC50 was 1020 nM.
Work on CS(=O)(=O)Nc1cccc(CN2CC[C@@H](Nc3cccc4cnccc34)C2)c1 [Compound 2.038, (R)-N-(3-((3-(isoquinolin-5-ylamino)pyrrolidin-1-yl)methyl)phenyl)methanesulfonamide] yielded an IC50 of 112 nM.
COc1ccc(CN2CCCC(Nc3cccc4cnccc34)C2)cc1 (centres unmarked) [Compound 2.001, N-(1-(4-methoxybenzyl)piperidin-3-yl)isoquinolin-5-amine] was tested, and the IC50 was 98.8 nM.
c1ccc(CN2CCCC(Nc3cccc4cnccc34)CC2)cc1 (centres unmarked) [Compound 2.013, N-(1-benzylazepan-4-yl)isoquinolin-5-amine] gave an IC50 of 1490 nM.
In the case of CS(=O)(=O)Cc1cccc(CN2CCCC(Nc3ccc4[nH]ncc4c3)C2)c1 (centres unmarked) [Compound 1.041, N-(1-(3-(methylsulfonylmethyl)benzyl)piperidin-3-yl)-1H-indazol-5-amine], the IC50 is reported as 137 nM.
CS(=O)(=O)c1ccc(CN2CCC(Nc3cccc4cnccc34)C2)cc1 (centres unmarked) [Compound 2.005, N-(1-(4-(methylsulfonyl)benzyl)pyrrolidin-3-yl)isoquinolin-5-amine] gave an IC50 of 1780 nM.
Work on CS(=O)(=O)Nc1cc(CN2CCCC(Nc3ccc4[nH]ncc4c3)C2)ccc1Cl (centres unmarked) [Compound 1.102, N-(5-((3-(1H-indazol-5-ylamino)piperidin-1-yl)methyl)-2-chlorophenyl)methanesulfonamide] yielded an IC50 of 34.3 nM.
O=C(O)COc1cccc(CN2CCCC(Nc3ccc4[nH]ncc4c3)C2)c1 (centres unmarked) [Compound 1.086, 2-(3-((3-(1H-indazol-5-ylamino)piperidin-1-yl)methyl)phenoxy)acetic acid] was tested, and the IC50 was 310 nM.
For c1cn(-c2ccc(CN3CCCC(Nc4ccc5[nH]ncc5c4)C3)cc2)cn1 (centres unmarked) [Compound 1.010], the IC50 was 2800 nM.
In the case of Cc1ccc(CN2CC[C@@H](Nc3cccc4cnccc34)C2)cc1 [Compound 2.025, (R)-N-(1-(4-methylbenzyl)pyrrolidin-3-yl)isoquinolin-5-amine], the IC50 is reported as 29.9 nM.
Molecule NC(=O)Cn1ccc2ccc(CN3CCC[C@@H](Nc4ccc5[nH]ncc5c4)C3)cc21 [Compound 1.106, (R)-2-(6-((3-(1H-indazol-5-ylamino)piperidin-1-yl)methyl)-1H-indol-1-yl)acetamide] has an IC50 of 69.2 nM.
In the case of NS(=O)(=O)c1cccc(CN2CCCC(Nc3ccc4[nH]ncc4c3)C2)c1 (centres unmarked) [Compound 1.056, 3-((3-(1H-indazol-5-ylamino)piperidin-1-yl)methyl)benzenesulfonamide], the IC50 is reported as 435 nM.
Molecule FC(F)(F)c1cccc(CN2CCC(Nc3cccc4cnccc34)C2)c1 (centres unmarked) [Compound 2.018, N-(1-(3-(trifluoromethyl)benzyl)pyrrolidin-3-yl)isoquinolin-5-amine] has an IC50 of 632 nM.
For Oc1cccc(CN2CCCC(Nc3ccc4[nH]ncc4c3)C2)c1 (centres unmarked) [Compound 1.046, 3-((3-(1H-indazol-5-ylamino)piperidin-1-yl)methyl)phenol], the IC50 was 156 nM.
With C#Cc1ccc(CN2CCCC(Nc3ccc4[nH]ncc4c3)C2)cc1 (centres unmarked) [Compound 1.034, N-(1-(4-ethynylbenzyl)piperidin-3-yl)-1H-indazol-5-amine] the IC50 was 69.1 nM.
